Tested on: rats
Assay: Biochemical examination of liver function indices in rats
Format: in vivo, Sprague-Dawley rats
Conditions: rat plasma
[1] = Group II single i.v. dose RSV + vehicle control
[2] = Group IV single p.o. dose RSV + vehicle control

Source text: After the last sample in the plasma pharmacokinetic study, all rats were deeply anesthetized and exsanguinated by severing the abdominal aorta. Blood and liver samples were harvested. The plasma was used for the assay of alanine aminotransferase (ALT), aspartate aminotransferase (AST), total bilirubin (TBIL), unconjugated bilirubin (IBIL), and conjugated bilirubin (DBIL) by an automatic analyzer (Beckman Coulter, Brea, CA, United States).

Work on `CC(C)c1nc(N(C)S(C)(=O)=O)nc(-c2ccc(F)cc2)c1/C=C/[C@@H](O)C[C@@H](O)CC(=O)O` [RSV, rosuvastatin] yielded an ALT [1] of 54.00 ± 14.17 U/L, an AST [1] of 210.50 ± 36.59 U/L and a DBIL [1] of 1.12 ± 0.11 µmol/L. The IBIL [1] was 0.88 ± 0.18 µmol/L, the TBIL [1] was 2.00 ± 0.22 µmol/L and the ALT [2] was 52.00 ± 6.68 U/L. It also gave an AST [2] of 212.50 ± 33.72 U/L, a DBIL [2] of 0.58 ± 0.33 µmol/L and an IBIL [2] of 0.57 ± 0.36 µmol/L. The TBIL [2] was 1.13 ± 0.42 µmol/L.

— publication PMC8504577, “Evaluation of a Clinically Relevant Drug–Drug Interaction Between Rosuvastatin and Clopidogrel and the Risk of Hepatotoxicity” (Frontiers in Pharmacology, 2021)
